US20060069132A1, “Azolecarboxamide herbicides” (priority 2004, published 2006)

Legend:
[1] = system: morningglory; test: Test A pre-/postemergence herbicide test; format: in vivo, Ipomoea spp.
Method in brief: (§1)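 Seeds sown in sandy loam received a preemergence directed soil spray of compound in non-phytotoxic solvent with surfactant; postemergence plants (2–10 cm, one- to two-leaf stage) were sprayed to runoff at the same time. After ~10 days in greenhouse, injury was rated visually versus untreated controls (0 = no effect, 100 = complete control).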

[2] = system: barnyardgrass; test: Test B flooded paddy test; format: in vivo, Echinochloa crus-galli; conditions: 1000 g ai/ha, visual rating, scale 0 to 100 (0 no effect, 100 complete control), 13 to 15 days
Method in brief: (§2)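 Greenhouse test; postemergence application to plants at 1–4 leaves (2–18 cm); paddy species at 2 leaves; evaluated visually vs controls at 13–15 days; scale 0–100 (100 = complete control).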

[3] = system: velvetleaf; test: Test A pre-/postemergence herbicide test; format: in vivo, Abutilon theophrasti
Method in brief: as §1

[4] = system: giant foxtail; test: Test B pre-/postemergence herbicide test; format: in vivo, Setaria faberi; conditions: for Plant response rating, Foxtail, Giant: preemergence; for Foxtail, Giant plant response rating: postemergence, visual rating, scale 0 (no effect) to 100 (complete control)
Method in brief: (§3)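 Formulation: non-phytotoxic solvent mix with surfactant. Timing: preemergence on seed and postemergence on 2–18 cm plants, applied concurrently. Readout after 13–15 d greenhouse: visual 0–100 control rating against controls.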

[5] = system: large crabgrass; test: Test B pre-/postemergence herbicide test; format: in vivo, Digitaria sanguinalis; conditions: for Plant response rating, Crabgrass, Large: preemergence; for Crabgrass, Large plant response rating: postemergence, visual rating, scale 0 (no effect) to 100 (complete control)
Method in brief: as §3

[6] = system: wheat; test: Test B postemergence herbicide test; format: in vivo, Triticum aestivum; parameters: key to Wheat plant response rating: 0 = no effect, 100 = complete control; conditions: postemergence, 500 g ai/ha; visual rating, scale 0 (no effect) to 100 (complete control)
Method in brief: (§4)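 Read-out: visual comparison with controls, scored 0 to 100, where 100 means complete control and 0 no effect. Formulated chemicals were applied postemergence to plants 2–18 cm tall (1- to 4-leaf), or to flooded-paddy plants at the 2-leaf stage, then held 13 to 15 days under glass.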

[7] = system: barnyardgrass; test: Test B pre-/postemergence herbicide test; format: in vivo, Echinochloa crus-galli; conditions: for Plant response rating, Barnyardgrass: preemergence; for Barnyardgrass plant response rating: postemergence, visual rating, scale 0 (no effect) to 100 (complete control)
Method in brief: (§5)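 Greenhouse pot assay with simultaneous preemergence (treated seed) and postemergence (2–18 cm seedlings) applications of surfactant-containing, non-phytotoxic solvent formulations. Response scored visually 13–15 days later on a 0–100 scale, 100 meaning complete control.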

[8] = system: lambsquarters; test: Test B pre-/postemergence herbicide test; format: in vivo, Chenopodium album; conditions: for Plant response rating, Lambsquarters: preemergence; for Lambsquarters plant response rating: postemergence, visual rating, scale 0 (no effect) to 100 (complete control)
Method in brief: as §3

[9] = system: rice; test: Test B pre-/postemergence herbicide test; format: in vivo, Oryza sativa; conditions: preemergence
Method in brief: as §3

[10] = system: ducksalad; test: Test B flooded paddy test; format: in vivo, Heteranthera limosa; conditions: 1000 g ai/ha, visual rating, scale 0 to 100 (0 no effect, 100 complete control), 13 to 15 days
Method in brief: as §2

[11] = system: pigweed; test: Test B pre-/postemergence herbicide test; format: in vivo, Amaranthus retroflexus; conditions: for Plant response rating, Pigweed: preemergence; for Pigweed plant response rating: postemergence, visual rating, scale 0 (no effect) to 100 (complete control)
Method in brief: as §3

[12] = system: morningglory; test: Test B pre-/postemergence herbicide test; format: in vivo, Ipomoea coccinea; conditions: for Plant response rating, Morningglory: preemergence; for Morningglory plant response rating: postemergence, visual rating, scale 0 (no effect) to 100 (complete control)
Method in brief: as §5

[13] = system: blackgrass; test: Test B postemergence herbicide test; format: in vivo, Alopecurus myosuroides; conditions: postemergence, visual rating, scale 0 (no effect) to 100 (complete control)
Method in brief: as §2

[14] = system: large crabgrass; test: Test A pre-/postemergence herbicide test; format: in vivo, Digitaria sanguinalis
Method in brief: as §1

[15] = system: velvetleaf; test: Test B pre-/postemergence herbicide test; format: in vivo, Abutilon theophrasti; conditions: for Plant response rating, Velvetleaf: preemergence; for Velvetleaf plant response rating: postemergence, visual rating, scale 0 (no effect) to 100 (complete control)
Method in brief: as §3

[16] = system: small flower umbrella sedge; test: Test B flooded paddy test; format: in vivo, Cyperus difformis; conditions: 1000 g ai/ha, visual rating, scale 0 to 100 (0 no effect, 100 complete control), 13 to 15 days
Method in brief: as §2

[17] = system: Surinam grass; test: Test B pre-/postemergence herbicide test; format: in vivo, Urochloa decumbens; conditions: for Plant response rating, Surinam Grass: preemergence; for Surinam Grass plant response rating: postemergence, visual rating, scale 0 (no effect) to 100 (complete control)
Method in brief: as §3

[18] = system: rice; test: Test B flooded paddy test; format: in vivo, Oryza sativa; conditions: 1000 g ai/ha, visual rating, scale 0 to 100 (0 no effect, 100 complete control), 13 to 15 days
Method in brief: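 Scale 0–100: zero equals no visible effect, 100 complete control, judged by eye relative to controls. Timing: 13 to 15 days in greenhouse post-treatment. Growth stage at spraying: two leaves (paddy) or one to four leaves, 2–18 cm (postemergence).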

[19] = system: cocklebur; test: Test B pre-/postemergence herbicide test; format: in vivo, Xanthium strumarium; conditions: for Plant response rating, Cocklebur: preemergence; for Cocklebur plant response rating: postemergence, visual rating, scale 0 (no effect) to 100 (complete control)
Method in brief: as §5

[20] = system: redroot pigweed; test: Test A pre-/postemergence herbicide test; format: in vivo, Amaranthus retroflexus
Method in brief: as §1

[21] = system: barnyardgrass; test: Test A pre-/postemergence herbicide test; format: in vivo, Echinochloa crus-galli
Method in brief: as §1

[22] = system: corn; test: Test B pre-/postemergence herbicide test; format: in vivo, Zea mays; conditions: for Plant response rating, Corn: preemergence; for Corn plant response rating: postemergence, visual rating, scale 0 (no effect) to 100 (complete control)
Method in brief: as §3

[23] = system: wild oat; test: Test B postemergence herbicide test; format: in vivo, Avena fatua; conditions: postemergence, visual rating, scale 0 (no effect) to 100 (complete control)
Method in brief: as §4

[24] = system: giant foxtail; test: Test A pre-/postemergence herbicide test; format: in vivo, Setaria faberi
Method in brief: as §1

[25] = Postemergence, 500 g ai/ha, 0 to 100 scale, 0 no effect, 100 complete control
[26] = Postemergence, 2000 g ai/ha, 0 to 100 scale, 0 no effect, 100 complete control
[27] = Preemergence, 500 g ai/ha, visual rating, 0 to 100 scale (0 no effect, 100 complete control)
[28] = Preemergence, 2000 g ai/ha, visual rating, 0 to 100 scale (0 no effect, 100 complete control)
[29] = preemergence, 500 g ai/ha, visual injury, 0 to 100 scale (0 no effect, 100 complete control)
[30] = 500 g ai/ha, visual rating 0-100, 0 no effect, 100 complete control
[31] = 125 g ai/ha, 0 to 100 scale, 0 is no effect, 100 is complete control

Structure (SMILES): CCn1nc(C(C)(C)C)cc1C(=O)Nc1cc(C(=O)NC(C)(C)C)ccn1 [Compound 154]
- Morningglory plant response rating [1, 25]: 20
- Plant response rating, Morningglory [1, 26]: 40
- Morningglory plant response rating [1, 27]: 10
- Morningglory plant response rating [1, 28]: 30
- Barnyardgrass plant response rating [2]: 50
- Velvetleaf plant response rating [3, 25]: 10
- Plant response rating, Velvetleaf [3, 26]: 30
- Velvetleaf plant response rating [3, 28]: 60
- Velvetleaf plant response rating [3, 29]: 15
- Plant response rating, Foxtail, Giant [4, 30]: 30
- Foxtail, Giant plant response rating ([4]; 125 g ai/ha): 10
- Foxtail, Giant plant response rating ([4]; 500 g ai/ha): 20
- Plant response rating, Foxtail, Giant [4, 31]: 0
- Plant response rating, Crabgrass, Large [5, 30]: 80
- Crabgrass, Large plant response rating ([5]; 125 g ai/ha): 10
- Crabgrass, Large plant response rating ([5]; 500 g ai/ha): 20
- Plant response rating, Crabgrass, Large [5, 31]: 50
- Wheat plant response rating [6]: 10
- Plant response rating, Barnyardgrass [7, 30]: 80
- Barnyardgrass plant response rating ([7]; 125 g ai/ha): 20
- Barnyardgrass plant response rating ([7]; 500 g ai/ha): 50
- Plant response rating, Barnyardgrass [7, 31]: 10
- Plant response rating, Lambsquarters [8, 30]: 90
- Lambsquarters plant response rating ([8]; 125 g ai/ha): 80
- Lambsquarters plant response rating ([8]; 500 g ai/ha): 90
- Plant response rating, Lambsquarters [8, 31]: 70
- Plant response rating, Rice [9, 30]: 0
- Plant response rating, Rice [9, 31]: 0
- Ducksalad plant response rating [10]: 80
- Plant response rating, Pigweed [11, 30]: 100
- Pigweed plant response rating ([11]; 125 g ai/ha): 20
- Pigweed plant response rating ([11]; 500 g ai/ha): 80
- Plant response rating, Pigweed [11, 31]: 90
- Plant response rating, Morningglory [12, 30]: 0
- Morningglory plant response rating ([12]; 125 g ai/ha): 60
- Morningglory plant response rating ([12]; 500 g ai/ha): 70
- Plant response rating, Morningglory [12, 31]: 0
- Blackgrass plant response rating ([13]; 125 g ai/ha): 10
- Blackgrass plant response rating ([13]; 500 g ai/ha): 10
- Crabgrass, Large plant response rating [14, 25]: 20
- Plant response rating, Crabgrass, Large [14, 26]: 30
- Crabgrass, Large plant response rating [14, 27]: 25
- Crabgrass, Large plant response rating [14, 28]: 85
- Plant response rating, Velvetleaf [15, 30]: 70
- Velvetleaf plant response rating ([15]; 125 g ai/ha): 20
- Velvetleaf plant response rating ([15]; 500 g ai/ha): 60
- Plant response rating, Velvetleaf [15, 31]: 70
- Sedge, Umbrella plant response rating [16]: 20
- Plant response rating, Surinam Grass [17, 30]: 10
- Surinam Grass plant response rating ([17]; 125 g ai/ha): 30
- Surinam Grass plant response rating ([17]; 500 g ai/ha): 60
- Plant response rating, Surinam Grass [17, 31]: 0
- Rice plant response rating [18]: 20
- Plant response rating, Cocklebur [19, 30]: 10
- Cocklebur plant response rating ([19]; 125 g ai/ha): 60
- Cocklebur plant response rating ([19]; 500 g ai/ha): 70
- Plant response rating, Cocklebur [19, 31]: 0
- Pigweed plant response rating [20, 25]: 90
- Plant response rating, Pigweed [20, 26]: 100
- Pigweed plant response rating [20, 28]: 100
- Pigweed plant response rating [20, 29]: 85
- Barnyardgrass plant response rating [21, 25]: 50
- Plant response rating, Barnyardgrass [21, 26]: 90
- Barnyardgrass plant response rating [21, 27]: 30
- Barnyardgrass plant response rating [21, 28]: 95
- Plant response rating, Corn [22, 30]: 0
- Corn plant response rating ([22]; 125 g ai/ha): 10
- Corn plant response rating ([22]; 500 g ai/ha): 20
- Plant response rating, Corn [22, 31]: 0
- Oat, Wild plant response rating ([23]; 125 g ai/ha): 10
- Oat, Wild plant response rating ([23]; 500 g ai/ha): 30
- Foxtail, Giant plant response rating [24, 25]: 20
- Plant response rating, Foxtail, Giant [24, 26]: 20
- Foxtail, Giant plant response rating [24, 27]: 20
- Foxtail, Giant plant response rating [24, 28]: 70
